Measurements from US9309213B2, “C-3 substituted bicyclooctane based HIV protease inhibitors” (Purdue Research Foundation, priority 2011, dated 2016).
Several values for one entry are separate records, joined by “and”; a condition that tells them apart may be missing. Identical values can stand only once. Like-named read-outs stand apart in the source and are kept apart here.

Legend:
HIV-1 protease = biological target: T1, HIV-1 protease (Human immunodeficiency virus type 1 group M subtype B, UniProt P04585); test: HIV-1 protease enzyme inhibitory assay (protocol of Toth and Marshall); assay type: biochemical
T1 construct: The HIV aspartic protease plays a central role in the life cycle of the virus; It cleaves the virally encoded polyprotein
Text: Inhibitors were designed to make additional interactions in the S2-subsite of the protease, especially with the Gly48 backbone atoms in the flap region of the enzyme. All inhibitors in Table 1 were first evaluated in the enzyme inhibitory assay developed by Toth and Marshall (Toth and Marshall, Int. J. Pept. Protein Res. 1990, 36, 544-550). […] The 3-(S)-hydroxy Cp-THF ligand was also investigated in combination with other sulfonamide substituents.
All inhibitors were first tested for their enzyme inhibitory potency using the assay protocol developed by Toth and Marshall.

HIV-1LAI = test: In vitro antiviral assay, MT-2 cells exposed to HIV-1LAI, MTT assay; assay type: cell-based; settings: for loss of antiviral activity (higher IC50) compared to 22: relative to inhibitor 22
HIV-1MDR/G = test: microbe, parasite or virus in culture; assay type: cell-based; settings: for IC50: Human immunodeficiency virus 1, read-out: IC50 ± SDs
HIV-1MDR/TM = test: microbe, parasite or virus in culture; assay type: cell-based; settings: for IC50: Human immunodeficiency virus 1, read-out: IC50 ± SDs
HIV-1MDR/C = test: microbe, parasite or virus in culture; assay type: cell-based; settings: for IC50: Human immunodeficiency virus 1, read-out: IC50 ± SDs
[1] = system: HIV-1ERS104pre (wild type); test: Antiviral assay in PHA-PBMs, inhibition of p24 Gag protein production, wild-type isolate; assay type: cell-based
HIV-1MDR/B = test: microbe, parasite or virus in culture; assay type: cell-based; settings: for IC50: Human immunodeficiency virus 1, read-out: IC50 ± SDs
[2] = Human immunodeficiency virus 1, MT2, read-out: ID50, Table 2, antiviral activity
[3] = Human immunodeficiency virus 1, MT2, Table 1, MT-2 cells, 100 TCID50s of HIV-1LAI, MTT assay, means of at least two experiments
[4] = Human immunodeficiency virus 1, MT2, read-out: antiviral IC50
[5] = read-out: Ki / enzyme inhibitory potency

Molecule: CON[C@@H]1CO[C@@H]2C[C@H](OC(=O)N[C@@H](Cc3ccccc3)[C@H](O)CN(CC(C)C)S(=O)(=O)c3ccc(OC)cc3)C[C@H]12
- Ki (HIV-1 protease; Table 2, read-out: Ki): 0.088 nM
- IC50 (HIV-1LAI; [2]): 81.5 nM

Molecule: COc1ccc(S(=O)(=O)N(CC(C)C)C[C@@H](O)[C@H](Cc2ccccc2)NC(=O)O[C@@H]2C[C@@H]3[C@H](N(C)C)CO[C@@H]3C2)cc1
- Ki (HIV-1 protease; Table 2, read-out: Ki): 12.7 nM

Molecule: COc1ccc(S(=O)(=O)N(CC(C)C)C[C@@H](O)[C@H](Cc2ccccc2)NC(=O)O[C@@H]2C[C@H]3[C@@H](C2)OC[C@H]3OC(=O)N(C)C)cc1
- Ki (HIV-1 protease; Table 2, read-out: Ki): 0.02 nM
- IC50 (HIV-1LAI; [2]): 4.7 nM

Molecule: CC(C)CN(C[C@@H](O)[C@H](Cc1ccccc1)NC(=O)O[C@H]1CCOC1)S(=O)(=O)c1ccc(N)cc1 [APV, amprenavir, reference compound]
- IC50 (HIV-1MDR/G): 380 ± 30 nM
- fold change of IC50 (HIV-1MDR/G; Table 3, HIV-1MDR/G compared to wild-type HIV-1ERS104pre): 12
- IC50 (HIV-1MDR/TM): 190 ± 60 nM
- fold change of IC50 (HIV-1MDR/TM; Table 3, HIV-1MDR/TM compared to wild-type HIV-1ERS104pre): 6
- IC50 (HIV-1MDR/C): 260 ± 30 nM
- fold change of IC50 (HIV-1MDR/C; Table 3, HIV-1MDR/C compared to wild-type HIV-1ERS104pre): 9
- IC50 ([1]; Human immunodeficiency virus 1, Table 3, HIV-1ERS104pre (wild type), PHA-PBMs, p24 Gag, read-out: IC50 ± SDs): 30 ± 6 nM
- IC50 (HIV-1MDR/B): 930 ± 280 nM
- fold change of IC50 (HIV-1MDR/B; Table 3, HIV-1MDR/B compared to wild-type HIV-1ERS104pre): 31

Molecule: COc1ccc(S(=O)(=O)N(CC(C)C)C[C@@H](O)[C@H](Cc2ccccc2)NC(=O)O[C@@H]2C[C@@H]3C(=O)CO[C@@H]3C2)cc1 [Inhibitor 19a, (3aS,5R,6aR)-3-oxohexahydro-2H-cyclopenta[b]furan-5-yl (2S,3R)-3-hydroxy-4-(N-isobutyl-4-methoxyphenylsulfonamido)-1-phenylbutan-2-ylcarbamate]
- Ki (HIV-1 protease; Table 1, read-out: Ki): 0.95 nM
- IC50 (HIV-1LAI; Human immunodeficiency virus 1, MT2, Table 1, MT-2 cells, 100 TCID50s of HIV-1LAI, MTT assay, means of at least two experiments, read-out: IC50): 14 nM

Molecule: COc1ccc(S(=O)(=O)N(CC(C)C)C[C@@H](O)[C@H](Cc2ccccc2)NC(=O)O[C@@H]2C[C@@H]3[C@H](OC)CO[C@@H]3C2)cc1 [Inhibitor 19b, (3S,3aS,5R,6aR)-3-Methoxyhexahydro-2H-cyclopenta[b]furan-5-yl [(2S,3R)-3-Hydroxy-4-(N-iso-butyl-4-methoxyphenylsulfonamido)-1-phenylbutan-2-yl]carbamate]
- Ki (HIV-1 protease; Table 1, read-out: Ki): 0.39 nM
- Ki (HIV-1 protease; read-out: Ki): 0.95 nM
- IC50 (HIV-1LAI; [3]): 37 nM
- IC50 (HIV-1LAI; [4]): 37 nM
- loss of antiviral activity (higher IC50) compared to 22 (HIV-1LAI): ~5 fold and ~7 fold

Molecule: COc1ccc(S(=O)(=O)N(CC(C)C)C[C@@H](O)[C@H](Cc2ccccc2)NC(=O)O[C@@H]2C[C@@H]3[C@H](C)CO[C@@H]3C2)cc1 [Inhibitor 19e, (3S,3aR,5R,6aR)-3-Methylhexahydro-2H-cyclopenta[b]furan-5-yl [(2S,3R)-3-Hydroxy-4-(N-iso-butyl-4-methoxyphenylsulfonamido)-1-phenylbutan-2-yl]carbamate]
- Ki (HIV-1 protease; Table 1, read-out: Ki): 0.02 nM and 0.16 nM
- IC50 (HIV-1LAI; [3]): 25 nM
- loss of antiviral activity (higher IC50) compared to 22 (HIV-1LAI): 5 fold

Molecule: COc1ccc(S(=O)(=O)N(CC(C)C)C[C@@H](O)[C@H](Cc2ccccc2)NC(=O)O[C@@H]2C[C@@H]3[C@@H](C)CO[C@@H]3C2)cc1 [Inhibitor 19f, (3R,3aR,5R,6aR)-3-Methylhexahydro-2H-cyclopenta[b]furan-5-yl [(2S,3R)-3-Hydroxy-4-(N-isobutyl-4-methoxyphenylsulfonamido)-1-phenylbutan-2-yl]carbamate]
- Ki (HIV-1 protease; Table 1, read-out: Ki): 0.017 nM

Molecule: COc1ccc(S(=O)(=O)N(CC(C)C)C[C@@H](O)[C@H](Cc2ccccc2)NC(=O)O[C@@H]2C[C@@H]3[C@H](NC(C)=O)CO[C@@H]3C2)cc1 [Inhibitor 19g, (3S,3aR,5R,6aR)-3-acetamidohexahydro-2H-cyclopenta[b]furan-5-yl (2S,3R)-3-hydroxy-4-(N-isobutyl-4-methoxyphenylsulfonamido)-1-phenylbutan-2-yl-carbamate]
- Ki (HIV-1 protease; [5]): 0.007 nM
- IC50 (HIV-1LAI; [2]): 21.5 nM
- IC50 (HIV-1LAI; [4]): 25 nM

Molecule: COc1ccc(S(=O)(=O)N(CC(C)C)C[C@@H](O)[C@H](Cc2ccccc2)NC(=O)O[C@@H]2C[C@@H]3[C@@H](NC(C)=O)CO[C@@H]3C2)cc1 [Inhibitor 19h, (3′R,3′aR,5′R,6′aR)-3-acetamidohexahydro-2H-cyclopenta[b]furan-5-yl (2S,3R)-3-hydroxy-4-(N-isobutyl-4-methoxyphenylsulfonamido)-1-phenylbutan-2-yl-carbamate]
- Ki (HIV-1 protease; Table 2, read-out: Ki): 0.0075 nM
- Ki (HIV-1 protease; [5]): 0.007 nM
- IC50 (HIV-1LAI; [2]): 31 nM
- IC50 (HIV-1LAI; [4]): 31 nM

Molecule: COc1ccc(S(=O)(=O)N(CC(C)C)C[C@@H](O)[C@H](Cc2ccccc2)NC(=O)O[C@@H]2C[C@@H]3[C@H](NS(C)(=O)=O)CO[C@@H]3C2)cc1 [Inhibitor 19i, (3S,3aR,5R,6aR)-3-(methylsulfonamido)hexahydro-2H-cyclopenta[b]furan-5-yl ((2S,3R)-3-hydroxy-4-(N-isobutyl-4-methoxyphenylsulfonamido)-1-phenylbutan-2-yl)-carbamate]
- Ki (HIV-1 protease; Table 2, read-out: Ki): 0.017 nM and 0.032 nM
- IC50 (HIV-1LAI; [2]): 28 nM

Molecule: COc1ccc(S(=O)(=O)N(CC(C)C)C[C@@H](O)[C@H](Cc2ccccc2)NC(=O)O[C@@H]2C[C@@H]3[C@@H](NS(C)(=O)=O)CO[C@@H]3C2)cc1 [Inhibitor 19j, (3R,3aR,5R,6aR)-3-(methylsulfonamido)hexahydro-2H-cyclopenta[b]furan-5-yl ((2S,3R)-3-hydroxy-4-(N-isobutyl-4-methoxyphenylsulfonamido)-1-phenylbutan-2-yl) carbamate]
- Ki (HIV-1 protease; Table 2, read-out: Ki): 0.18 nM
- IC50 (HIV-1LAI; [2]): 50 nM

Molecule: COc1ccc(S(=O)(=O)N(CC(C)C)C[C@@H](O)[C@H](Cc2ccccc2)NC(=O)O[C@@H]2C[C@@H]3[C@H](O)CO[C@@H]3C2)cc1 [Inhibitor 22, (3S,3aR,5R,6aR)-3-hydroxyhexahydro-2H-cyclopenta[b]furan-5-yl (2S,3R)-3-hydroxy-4-(4-(methoxy)-N-isobutylphenylsulfonamido)-1-phenylbutan-2-ylcarbamate]
- IC50 (HIV-1MDR/G): 270 ± 20 nM
- IC50 (HIV-1MDR/TM): 41 ± 4 nM
- IC50 (HIV-1MDR/C): > 1000 nM
- IC50 (HIV-1LAI; [3]): 5 nM
- IC50 (HIV-1LAI; [4]): 5 nM
- IC50 (HIV-1LAI; Table 1, MT-2 cells, 100 TCID50s of HIV-1LAI, MTT assay, means of at least two experiments): 7 nM
- IC50 ([1]; Human immunodeficiency virus 1): 20 nM
- IC50 ([1]; Human immunodeficiency virus 1, read-out: IC50 ± SDs): 20 ± 4 nM
- IC50 (HIV-1MDR/B): > 1000 nM

Molecule: CC(C)CN(C[C@@H](O)[C@H](Cc1ccccc1)NC(=O)O[C@@H]1C[C@@H]2[C@H](O)CO[C@@H]2C1)S(=O)(=O)c1ccc(CO)cc1 [Inhibitor 23, (3S,3aR,5R,6aR)-3-Hydroxyhexahydro-2H-cyclopenta[b]furan-5-yl {(2S,3R)-3-Hydroxy-4-[4-(hydroxymethyl)-N-iso-butylphenylsulfonamido]-1-phenylbutan-2-yl}carbamate]
- Ki (HIV-1 protease; Table 1, read-out: Ki): 0.06 nM
- IC50 (HIV-1LAI; [3]): 19 nM
- loss of antiviral activity (higher IC50) compared to 22 (HIV-1LAI): 4 fold

Molecule: CC(C)CN(C[C@@H](O)[C@H](Cc1ccccc1)NC(=O)O[C@@H]1C[C@@H]2[C@@H](O)CO[C@@H]2C1)S(=O)(=O)c1ccc(N)cc1 [Inhibitor 26, (3R,3aR,5R,6aR)-3-Hydroxyhexahydro-2H-cyclopenta[b]furan-5-yl [(2S,3R)-4-(4-Amino-N-iso-butylphenylsulfonamido)-3-hydroxy-1-phenylbutan-2-yl]-carbamate]
- Ki (HIV-1 protease; Table 1, read-out: Ki): 0.006 nM
- IC50 (HIV-1LAI; [3]): 36 nM

Molecule: CC(C)CN(C[C@@H](O)[C@H](Cc1ccccc1)NC(=O)O[C@@H]1C[C@@H]2[C@H](O)CO[C@@H]2C1)S(=O)(=O)c1ccc(N)cc1 [Inhibitor 123, (3S,3aR,5R,6aR)-3-Hydroxyhexahydro-2H-cyclopenta[b]furan-5-yl [(2S,3R)-4-(4-Amino-N-isobutylphenylsulfonamido)-3-hydroxy-1-phenylbutan-2-yl]carbamate]
- loss of antiviral activity (higher IC50) compared to 22 (HIV-1LAI): 3 fold

Molecule: CC(C)(C)NC(=O)[C@@H]1C[C@@H]2CCCC[C@@H]2CN1C[C@@H](O)[C@H](Cc1ccccc1)NC(=O)[C@H](CC(N)=O)NC(=O)c1ccc2ccccc2n1 [SQV, saquinavir, reference compound]
- IC50 (HIV-1LAI; [3]): 15 nM

Molecule: CC(C)CN(C[C@@H](O)[C@H](Cc1ccccc1)NC(=O)O[C@@H]1C[C@@H]2[C@H](O)CO[C@@H]2C1)S(=O)(=O)c1ccc(N)cc1 [drawing 10]
- Ki (HIV-1 protease; Table 1, read-out: Ki): 0.079 nM
- IC50 (HIV-1LAI; [3]): 25 nM

Molecule: COC(=O)N[C@@H]1CO[C@@H]2C[C@H](OC(=O)N[C@@H](Cc3ccccc3)[C@H](O)CN(CC(C)C)S(=O)(=O)c3ccc(OC)cc3)C[C@H]12 [drawing 23]
- IC50 (HIV-1LAI; [2]): 1.6 nM

Molecule: COC(=O)N[C@H]1CO[C@@H]2C[C@H](OC(=O)N[C@@H](Cc3ccccc3)[C@H](O)CN(CC(C)C)S(=O)(=O)c3ccc(OC)cc3)C[C@H]12 [drawing 24]
- Ki (HIV-1 protease; Table 2, read-out: Ki): 0.004 nM
- IC50 (HIV-1LAI; [2]): 4.6 nM

Molecule: ((3R,3aS,5R,6aR)-3-Methoxyhexahydro-2H-cyclopenta[b]furan-5-yl [(2S,3R)-3-Hydroxy-4-(N-iso-butyl-4-methoxyphenylsulfonamido)-1-phenylbutan-2-yl]-carbamate [Inhibitor 19d]
- Ki (HIV-1 protease; [5]): 0.006 nM
- IC50 (HIV-1LAI; Table 1, MT-2 cells, 100 TCID50s of HIV-1LAI, MTT assay, means of at least two experiments, read-out: IC50): 3.4 nM
